Reference: ChEMBL document CHEMBL2021772, “Synthesis and antitumor-evaluation of 1,3,4-thiadiazole-containing benzisoselenazolone derivatives” (Bioorg Med Chem Lett, 2012)

How the values were obtained:
[1] = Antiproliferative activity against human […] cells after 48 hrs by CCK-8 assay; assay type: functional, cell-based
MCF7 = test: Antiproliferative activity against human MCF7 cells after 48 hrs by CCK-8 assay; assay type: functional, cell-based; settings: MCF7, 48 h
A549 = test: Antiproliferative activity against human A549 cells after 48 hrs by CCK-8 assay; assay type: functional, cell-based; settings: A549, 48 h
[2] = Toxicity in rat; assay type: organism-based; settings: in vivo

Structure (SMILES)	IC50 [1] [µM]	IC50 (MCF7) [µM]	IC50 (A549) [µM]	LD50 [2] [mg/kg]
O=c1c2ccccc2[se]n1-c1nnc(-c2ccc(Cl)cc2)s1	24.4	19.4	10.4	
Cc1ccccc1-c1nnc(-n2[se]c3ccccc3c2=O)s1	19.4	36.8	18.6	
O=c1c2ccccc2[se]n1-c1nnc(-c2cccc([N+](=O)[O-])c2)s1	27.3	29.2	16.1	
O=c1c2ccccc2[se]n1-c1nnc(-c2ccc(F)cc2)s1	42.9	61.5	21.1	
COc1cc(-c2nnc(-n3[se]c4ccccc4c3=O)s2)cc(OC)c1OC	7.15	3.44	3.24	
O=c1c2ccccc2[se]n1-c1nnc(-c2ccccc2[N+](=O)[O-])s1	22.5	31.2	11.4	
COc1ccc(-c2nnc(-n3[se]c4ccccc4c3=O)s2)cc1	16.4	10	5.93	
Cc1ccc(-c2nnc(-n3[se]c4ccccc4c3=O)s2)cc1	16.6	18.7	13.4	
O=c1c2ccccc2[se]n1-c1ccccc1 [EBSELEN]	18.3	15	3.75	6180
Cc1cccc(-c2nnc(-n3[se]c4ccccc4c3=O)s2)c1	17.8	19.9	14.8	
COc1ccccc1-c1nnc(-n2[se]c3ccccc3c2=O)s1	14.3	3.92	3.12	
O=c1c2ccccc2[se]n1-c1nnc(-c2cc([N+](=O)[O-])cc([N+](=O)[O-])c2)s1	21.6	37.8	17.9	
O=c1c2ccccc2[se]n1-c1nnc(-c2ccccc2Br)s1	27.4	59.4	12.7	
O=c1c2ccccc2[se]n1-c1nnc(-c2ccccc2Cl)s1	40.2	4.43	10.1	
O=c1c2ccccc2[se]n1-c1nnc(-c2ccccc2)s1	20.5	4.02	2.48	
O=c1c2ccccc2[se]n1-c1nnc(-c2ccc(Br)cc2)s1	68.2	43.3	39.1	
